Source: EP0094644A1, “Utilization of a cholecalciferol derivative” (F. HOFFMANN-LA ROCHE & CO. Aktiengesellschaft, priority 1982, dated 1983)

What was measured:
Assay type in all cases: in vivo
Weissen Leghorn-Küken [1] = assay: Antirachitic activity in chicks (tibia ash weight); details: for Mittleres Tibiaaschengewicht: 21 days, vitamin D-deficient diet, vehicle control 120,7 ± 5,9
Description: a) Antirachitische Aktivität
Weissen Leghorn-Küken wird unter UV-freier Beleuchtung eine Vitamin D-arme, 1% Calcium und 0,7% Phosphor enthaltende Diät gegeben. Die in Propylenglykol gelöste Testverbindung wird während 21 Tagen den am Anfang des Versuchs 1 oder 2 Tage alten Küken oral verabreicht. Kontrolltiere werden mit dem Vehikel behandelt. Die Küken werden am Tag nach dem letzten Behandlungstag seziert und das Tibiaaschengewicht wird ermittelt. Es werden 9 oder 10 Küken für jede Behandlungsgruppe und für die Kontrollgruppe verwendet. Die mittleren Tibiaaschengewichte ausgedrückt in mg sind in der nachfolgenden Tabelle I angegeben.

[2] = tested on: Männliche Charles River Ratten; assay: Prevention of EHDP-induced mineralisation block in rats (epiphyseal plate width); details: for Mittlere Breite der Epiphysenplatte: 10 days with EHDP 2 mg/Ratte s.c., EHDP alone 1182 ± 51, no EHDP 440 ± 2
Experimental: c) Verhütung der durch EHDP-induzierten Blockierung der Mineralisierung bei Ratten
Männliche Charles River Ratten werden 10 Tage mit Dinatrium-äthan-1-hydroxy-1,1-diphosphonat (EHDP) behandelt. Die Verbindung wird in destilliertem Wasser in einer Konzentration von 2 mg/0,2 ml/Ratte jeden Tag subcutan verabreicht. Die fluorierte Verbindung wird in Propylenglykol jeden Tag oral verabreicht. Am Tag nach der letzten Behandlung werden die Ratten seziert und deren Tibia durch Silberimprägnierung der Knochensalze behandelt. Die Breite der Epiphysenplatte wird mit einem Mikroskop gemessen. Zur Ermittlung der Aktivität wird die dosisabhängige Verengerung der durch EHDP-Induktion erweiterten Epiphysenplatte gemessen. In jeder Behandlungsgruppe werden 10 Ratten verwendet. Es werden auch positive (EHDP allein) und negative (Vehikel allein) Kontrollgruppen von 10 Ratten in jedem Versuch verwendet.

Weissen Leghorn-Küken [3] = assay: Intestinal calcium absorption in chicks (serum 45Ca); details: for Serum ^45Ca: serum 45 min after isotope
Description: b) Intestinale Calcium-Absorption bei Küken
Weissen Leghorn-Küken wird während 21 Tagen unter UV-freier Bestrahlung eine Vitamin D-arme Diät gegeben. Eine Einzeldosis der Testverbindung, gelöst in Propylenglykol, wird den Tieren oral verabreicht. Danach werden zu verschiedenen Zeitpunkten 2 µCi ^45 Ca (Chlorid) oral verabreicht und die Serumradioaktivität 45 Minuten nach Verabreichung des Isotops gemessen. In jeder Versuchsperiode werden Kontrolltiere verwendet, denen nur das Vehikel verabreicht wird. In jeder Behandlungsgruppe und jeder Kontrollgruppe werden 10 oder 11 Küken verwendet.

[4] = 100 ng single oral dose, 24 Std., vehicle 992 ± 81
[5] = 100 ng single oral dose, 48 Std., vehicle 769 ± 90

SMILES	Mittleres Tibiaaschengewicht (Weissen Leghorn-Küken [1]; 1 ng/Küken/Tag oral)	Mittleres Tibiaaschengewicht (Weissen Leghorn-Küken [1]; 3 ng/Küken/Tag oral)	Mittleres Tibiaaschengewicht (Weissen Leghorn-Küken [1]; 10 ng/Küken/Tag oral)	Mittleres Tibiaaschengewicht (Weissen Leghorn-Küken [1]; 30 ng/Küken/Tag oral)	antirachitische Aktivität (Weissen Leghorn-Küken [1]; summary in words of Tabelle I)	Mittlere Breite der Epiphysenplatte ([2]; 1 ng/Ratte/Tag oral) [Mikron]	Mittlere Breite der Epiphysenplatte ([2]; 3 ng/Ratte/Tag oral) [Mikron]	Mittlere Breite der Epiphysenplatte ([2]; 10 ng/Ratte/Tag oral) [Mikron]	Mittlere Breite der Epiphysenplatte ([2]; 30 ng/Ratte/Tag oral) [Mikron]	Calcifizierung der Tibiaepiphysenplatte ([2]; EHDP-blocked rats, summary in words of Tabelle III)	Serum ^45Ca (Weissen Leghorn-Küken [3]; [4])	Serum ^45Ca (Weissen Leghorn-Küken [3]; [5])	Serum ^45Ca (Weissen Leghorn-Küken [3]; 100 ng single oral dose, 72 Std., vehicle 647 ± 69)	Serum ^45Ca (Weissen Leghorn-Küken [3]; 100 ng single oral dose, 96 Std., vehicle 586 ± 70)	lang andauernde intestinale Calcium-Absorption (Weissen Leghorn-Küken [3]; duration after 100 ng Einzeldosis, oral) [Stunden]	Serum ^45Ca (Weissen Leghorn-Küken [3]; 200 ng single oral dose, 72 Std., vehicle 647 ± 69)
C=C1/C(=C\C=C2/CCC[C@]3(C)[C@@H]([C@H](C)CCC(F)(F)C(C)(C)O)CC[C@@H]23)C[C@@H](O)C[C@@H]1O [fluorierte Verbindung, 24,24-Difluor-la,25-dihydroxycholecalciferol]	111,5 ± 4,7 mg	151,1 ± 8,2 mg	227,1 ± 8,2 mg	244,8 ± 7,4 mg	beträchtliche antirachitische Aktivität	839 ± 18	674 ± 18	540 ± 16	412 ± 9	die Calcifizierung der Tibiaepiphysenplatte bei EHDP-blockierten Ratten bewirkt	2064 ± 170 cpm/0,2 ml	1539 ± 99 cpm/0,2 ml	1164 ± 90 cpm/0,2 ml	998 ± 61 cpm/0,2 ml	96	
C=C1/C(=C\C=C2/CCC[C@]3(C)[C@@H]([C@H](C)CCCC(C)(C)O)CC[C@@H]23)C[C@@H](O)C[C@@H]1O [Verbindung A, 1a,25-Dihydroxycholecalciferol, reference compound]											1800 ± 181 cpm/0,2 ml	1006 ± 133 cpm/0,2 ml				710 ± 62 cpm/0,2 ml
